“And” between values parts separate entries of the source, which are not always exact repeats. Equal values may be shown once. Read-outs that look alike come from different tables or passages of the source.
How the values were obtained:
Sprague Dawley rats = settings: rat, in vivo, ip; for Score (histopathology liver necrosis severity score): Sprague Dawley, 72 h
Summary of the method: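 Toxicity calls (necrosis present or absent at 72 h) and histopathology scores were correlated with tissue gene expression from Crl:CD Sprague Dawley rats. Animals, usually 3 treated with compound by i.p. route and 3 given vehicle, were killed at 6, 24 or 72 h and tissues frozen immediately in liquid nitrogen.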

[1] = test system: toxicologically relevant rat genes (rat CT array); settings: rat, in vivo

CC/C(=C(\c1ccccc1)c1ccc(OCCN(C)C)cc1)c1ccccc1 [tamoxifen]
Score (histopathology liver necrosis severity score) (Sprague Dawley rats; 50 mg/kg): 1 | Score (histopathology liver necrosis severity score) (Sprague Dawley rats; 200 mg/kg): 1 | Liver Necrosis (Sprague Dawley rats; 50 mg/kg): no | Liver Necrosis (Sprague Dawley rats; 200 mg/kg): no | 14-3-3 zeta expression [1]: 1.06 and 1.114 and 1.024 and 1.069 and 1.078 | 60S ribosomal protein L6 expression [1]: 1.136 and 1.258 and 1.391 (2×) and 1.1 | Adenine nucleotide translocator 1 expression [1]: 0.8038 and 0.8428 and 1.025 and 0.963 and 1.349 | Alpha-1 microglobulin/bikunin precursor (Ambp) expression [1]: 1.137 and 1.13 and 1.288 and 1.072 and 1.505 | Alpha-tubulin expression [1]: 0.9413 and 0.9605 and 0.9619 and 0.9049 and 1.355 | Aquaporin-3 (AQP3) expression [1]: 0.9813 and 0.7741 and 0.9894 and 0.9996 and 0.8864 | Beta-actin expression [1]: 0.7738 and 0.942 and 0.6998 and 1.204 | Beta-actin, sequence 2 expression [1]: 0.7894 and 1.034 and 1.023 and 0.5893 | Beta-tubulin, class I expression [1]: 0.7904 and 0.7769 and 1.118 and 1.041 and 1.416 | Biliverdin reductase expression [1]: 1.244 and 1.177 and 0.9432 and 0.9712 | CDK108 expression [1]: 0.7646 and 0.771 and 0.9296 and 1.067 and 0.6341 | Calpactin I heavy chain expression [1]: 1.24 and 0.9779 and 0.9969 and 0.9558 and 1.503 | Calpain 2 expression [1]: 1.074 and 1.028 and 1.069 | Cathepsin B expression [1]: 1.062 and 1.634 and 1.119 and 0.9643 and 1.263 | Cathepsin L, sequence 2 expression [1]: 0.793 and 1.456 and 0.963 and 0.9594 | Cathepsin S expression [1]: 0.8837 and 1.721 and 1.401 | Cyclin D1 expression [1]: 0.9348 and 0.6137 and 1.116 and 1.1 and 0.745 | Cystatin C expression [1]: 0.7987 and 0.8206 and 1.149 and 1.058 and 1.138 | Dynamin-1 (D100) expression [1]: 0.974 and 0.8723 and 0.9822 and 1.024 and 0.9733 | Elongation factor-1 alpha expression [1]: 1.144 and 1.188 and 1.098 and 0.9078 and 1.206 | Equilbrative nitrobenzylthioinosine-sensitive nucleoside transporter expression [1]: 1.073 and 0.9454 and 0.9032 and 1.004 and 0.9505 | F1-ATPase beta subunit expression [1]: 0.7234 and 0.6975 and 0.9473 and 0.9602 and 1.189 | Gamma-actin, cytoplasmic expression [1]: 0.982 and 0.9804 and 1.031 and 1.54 | Glutathione S-transferase theta-1 expression [1]: 0.8059 and 0.9415 and 0.8757 and 1.133 | High affinity IgE receptor gamma chain (FcERIgamma) expression [1]: 0.9724 and 1.018 and 1.021 and 1.327 | Hypoxanthine-guanine phosphoribosyltransferase expression [1]: 0.7468 and 0.8598 and 0.8651 and 0.806 and 0.9251 | IgE binding protein expression [1]: 1.306 and 1.678 and 1.071 and 1.114 and 1.302 | JNK1 stress activated protein kinase expression [1]: 0.666 and 0.9165 and 0.9272 and 0.962 and 0.7174 | Melanoma-associated antigen ME491 expression [1]: 1.025 and 1.238 and 1.062 and 1.098 and 1.559 | Multidrug resistant protein-1 expression [1]: 1.082 and 1.58 and 1.118 and 1.184 and 0.9501 | Multidrug resistant protein-2 expression [1]: 0.8809 and 1.298 and 1.165 and 1.156 and 0.7835 | N-hydroxy-2-acetylaminofluorene sulfotransferase (ST1C1) expression [1]: 1.02 and 0.9797 and 0.9522 and 1.016 | NADP-dependent isocitrate dehydrogenase, cytosolic expression [1]: 0.865 and 1.545 | NIPK expression [1]: 1.08 and 1.011 and 0.9454 and 0.9651 | Organic cation transporter 3 expression [1]: 0.8883 and 1.096 and 1.263 | Ornithine decarboxylase expression [1]: 0.8334 and 1.039 and 1.055 and 1.097 and 1.469 | Osteoactivin expression [1]: 1.459 and 1.435 and 0.9157 and 0.9271 and 1.449 | Paraoxonase 1 expression [1]: 0.7398 and 0.6886 and 1.221 and 1.224 | Phase-1 RCT-24 expression [1]: 0.8968 | Phase-1 RCT-39 expression [1]: 1.47 and 0.9339 and 0.9947 | Phase-1 RCT-43 expression [1]: 0.9905 and 0.9704 and 0.9375 | Phase-1 RCT-57 expression [1]: 0.8991 and 0.6888 | Phase-1 RCT-78 expression [1]: 0.8505 and 0.8237 | Phase-1 RCT-81 expression [1]: 1.102 | Phase-1 RCT-107 expression [1]: 0.9169 and 0.6899 | Phase-1 RCT-109 expression [1]: 0.6916 | Phase-1 RCT-117 expression [1]: 0.9421 and 0.9667 | Phase-1 RCT-138 expression [1]: 0.9832 | Phase-1 RCT-144 expression [1]: 0.8629 | Phase-1 RCT-146 expression [1]: 0.9994 | Phase-1 RCT-149 expression [1]: 1.1 and 0.8836 | Phase-1 RCT-154 expression [1]: 0.8651 and 0.9418 and 0.9917 | Phase-1 RCT-156 expression [1]: 1.103 | Phase-1 RCT-164 expression [1]: 0.9378 and 0.8318 and 0.9484 | Phase-1 RCT-173 expression [1]: 0.7045 and 0.5898 | Phase-1 RCT-174 expression [1]: 0.7203 and 0.6816 | Phase-1 RCT-179 expression [1]: 1.2 and 0.9105 and 1.544 | Phase-1 RCT-192 expression [1]: 0.999 | Phase-1 RCT-207 expression [1]: 0.9742 | Phase-1 RCT-211 expression [1]: 0.8217 and 0.6431 | Phase-1 RCT-213 expression [1]: 0.8004 | Phase-1 RCT-227 expression [1]: 0.8538 | Phase-1 RCT-260 expression [1]: 0.974 and 0.93 | Phase-1 RCT-290 expression [1]: 0.5411 and 0.6526 | Poly(ADP-ribose) polymerase expression [1]: 0.8263 and 1.077 and 0.8901 and 0.8489 and 1.291 | Pyruvate kinase, muscle expression [1]: 1.141 and 1.584 and 1.146 and 1.081 and 0.8598 | Ribosomal protein L13A expression [1]: 1.178 and 0.9908 and 0.8711 | Ribosomal protein S8 expression [1]: 1.069 and 1.043 and 1.983 and 1.441 | Ribosomal protein S17 expression [1]: 0.9563 and 0.9932 and 1.772 and 1.494 | Stathmin expression [1]: 0.8925 and 1.067 and 1.025 and 0.9726 and 0.8514 | Thioredoxin-1 (Trx1) expression [1]: 0.9876 and 1.146 and 1.089 and 0.8216 and 0.7283 | Thymosin beta-10 expression [1]: 0.8732 and 1.234 and 1.068 and 0.8379 | Tissue plasminogen activator expression [1]: 0.8347 and 0.7599 and 0.9719 and 1.009 and 1.011 | Transitional endoplasmic reticulum ATPase expression [1]: 0.9168 and 0.8359 and 1.015 and 0.9607 and 1.436 | Ubiquitin conjugating enzyme (RAD 6 homologue) expression [1]: 0.9338 and 0.984 and 0.8685 and 0.6936 and 1.384 | Uncoupling protein 2 expression [1]: 1.105 and 1.472 and 1.007 and 0.9206 | Zinc finger protein expression [1]: 0.8577 and 1.115 and 0.9673 and 0.8957 and 1.145 | p55CDC expression [1]: 1.198 and 1.343 and 1.163 and 1.148 and 0.9509 | {Phase-1 RCT 98} expression [1]: 0.8993 and 0.665 and 1.028 and 1.025 | {Ribosomal protein 16} expression [1]: 1.136 and 1.255 and 1.519
